Measured values as given in PubChem BioAssay (NCI).
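All cell lines were grown in 96-well plates and treated with compound for 48 hours. Here, GI50 denotes the concentration required for 50% inhibition of growth. TGI: total growth inhibition.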

Legend:
Experiment in all cases: inhibition of tumour cell growth, NCI panel, 48 h
NCI-H226 lung = system: NCI-H226 lung
NCI-H23 lung = system: NCI-H23 lung
NCI-H460 lung = system: NCI-H460 lung
NCI-H522 lung = system: NCI-H522 lung
NCI/ADR-RES ovarian = system: NCI/ADR-RES ovarian
OVCAR-3 ovarian = system: OVCAR-3 ovarian
OVCAR-4 ovarian = system: OVCAR-4 ovarian
OVCAR-5 ovarian = system: OVCAR-5 ovarian
OVCAR-8 ovarian = system: OVCAR-8 ovarian
PC-3 prostate = system: PC-3 prostate
RPMI-8226 leukemia = system: RPMI-8226 leukemia
RXF 393 renal = system: RXF 393 renal
SF-268 CNS = system: SF-268 CNS
SF-295 CNS = system: SF-295 CNS
SF-539 CNS = system: SF-539 CNS
SK-MEL-2 melanoma = system: SK-MEL-2 melanoma
SK-MEL-28 melanoma = system: SK-MEL-28 melanoma
SK-MEL-5 melanoma = system: SK-MEL-5 melanoma
SK-OV-3 ovarian = system: SK-OV-3 ovarian
SN12C renal = system: SN12C renal
SNB-19 CNS = system: SNB-19 CNS
SNB-75 CNS = system: SNB-75 CNS
SW-620 colon = system: SW-620 colon
T-47D breast = system: T-47D breast
TK-10 renal = system: TK-10 renal
U251 CNS = system: U251 CNS
UACC-257 melanoma = system: UACC-257 melanoma
UACC-62 melanoma = system: UACC-62 melanoma
UO-31 renal = system: UO-31 renal

Cc1ccccc1[C@H]1C(C(=O)c2ccc(Cl)cc2)C2(N[C@@H]1c1ccccc1)C(=O)Nc1ccc(Br)cc12 (stereo partly drawn)
GI50 (NCI-H226 lung): 5.39 µM | TGI (NCI-H226 lung): 10.6 µM | GI50 (NCI-H23 lung): 5.39 µM | TGI (NCI-H23 lung): 10.9 µM | GI50 (NCI-H460 lung): 6.07 µM | TGI (NCI-H460 lung): 12.7 µM | GI50 (NCI-H522 lung): 5.86 µM | TGI (NCI-H522 lung): 11.5 µM | GI50 (NCI/ADR-RES ovarian): 5.54 µM | TGI (NCI/ADR-RES ovarian): 12.1 µM | GI50 (OVCAR-3 ovarian): 3.77 µM | TGI (OVCAR-3 ovarian): 8.32 µM | GI50 (OVCAR-4 ovarian): 4.72 µM | TGI (OVCAR-4 ovarian): 10.5 µM | GI50 (OVCAR-5 ovarian): 4.89 µM | TGI (OVCAR-5 ovarian): 9.61 µM | GI50 (OVCAR-8 ovarian): 6.35 µM | TGI (OVCAR-8 ovarian): 15 µM | GI50 (PC-3 prostate): 4.09 µM | TGI (PC-3 prostate): 9.8 µM | GI50 (RPMI-8226 leukemia): 7.29 µM | TGI (RPMI-8226 leukemia): 23.4 µM | GI50 (RXF 393 renal): 3.67 µM | TGI (RXF 393 renal): 8.34 µM | GI50 (SF-268 CNS): 4.74 µM | TGI (SF-268 CNS): 10.2 µM | GI50 (SF-295 CNS): 4.77 µM | TGI (SF-295 CNS): 9.52 µM | GI50 (SF-539 CNS): 5.99 µM | TGI (SF-539 CNS): 11.2 µM | GI50 (SK-MEL-2 melanoma): 5.32 µM | TGI (SK-MEL-2 melanoma): 10.7 µM | GI50 (SK-MEL-28 melanoma): 5.78 µM | TGI (SK-MEL-28 melanoma): 10.7 µM | GI50 (SK-MEL-5 melanoma): 5.83 µM | TGI (SK-MEL-5 melanoma): 10.8 µM | GI50 (SK-OV-3 ovarian): 6.75 µM | TGI (SK-OV-3 ovarian): 15.9 µM | GI50 (SN12C renal): 4.8 µM | TGI (SN12C renal): 9.56 µM | GI50 (SNB-19 CNS): 6.08 µM | TGI (SNB-19 CNS): 12.1 µM | GI50 (SNB-75 CNS): 2700 nM | TGI (SNB-75 CNS): 9.33 µM | GI50 (SW-620 colon): 5.9 µM | TGI (SW-620 colon): 11.7 µM | GI50 (T-47D breast): 4.09 µM | TGI (T-47D breast): 9.42 µM | GI50 (TK-10 renal): 5.54 µM | TGI (TK-10 renal): 10.9 µM | GI50 (U251 CNS): 5.6 µM | TGI (U251 CNS): 12.1 µM | GI50 (UACC-257 melanoma): 5.77 µM | TGI (UACC-257 melanoma): 11.5 µM | GI50 (UACC-62 melanoma): 4.69 µM | TGI (UACC-62 melanoma): 9.48 µM | GI50 (UO-31 renal): 4.41 µM | TGI (UO-31 renal): 8.94 µM
